Source: patent publication US10111822B2, “External dermal composition for anti-ageing and method for producing the same” (Hayashibara Co., Ltd., priority 2012, dated 2018)

Experiments:
glutathione = assay: Production level of glutathione in A431 cells; assay type: cell-based, human; settings: 1 mM, 24 h, control = 100%
Description: To Dulbecco's MEM medium, containing 10% v/v calf fetal serum and an antibiotic (abbreviated as “D-MEM”, hereinafter), were added ascorbic acid 2-glucoside, a reagent grade specimen commercialized by Hayashibara Co., Ltd., Okayama, Japan, or L-ascorbic acid, a special reagent grade specimen commercialized by Wako Pure Chemical Industries, Ltd., Tokyo, Japan, […]
Continuously-cultivated A431 cells in D-MEM medium were collected, resuspended in D-MEM medium, inoculated to culture plates with 10 cm in diameter (φ) in an amount of 1×10^6 cells/10 mL/plate, and cultured for 24 hours. Thereafter, the culture supernatants were removed by sucking, and the remaining cells were added with any of the test solutions in an amount of 10 mL/plate and cultured for another 24 hours. As a control, cells were added with only D-MEM medium in an amount of 10 mL/plate and cultured for 24 hours. To each plate, which had been removed its culture supernatant, was added ice-chilled Dulbecco's PBS (−) commercialized by Nissui Pharmaceutical Co., Ltd., Tokyo, Japan, to wash cells, which were then collected with a scraper. Glutathione was quantified with “Glutathione Assay Kit”, a commercially available glutathione assay kit commercialized by BioVision, Inc., San Francisco, USA. In this experiment, the control and test solutions were respectively assayed by using three plates respectively, and the data were averaged for obtaining a glutathione production level for each plate. A5% v/v CO2 incubator was used for culturing A431 cells in any case. Relative values of test samples were determined with the proviso that the production levels of reduced glutathione and total glutathione levels in A431 cells that had been cultured with only D-MEM medium were respectively regarded as 100%, and the results are in Table 4.

Involucrin = assay: Expression of proliferation marker protein involucrin in NHEK cells (Western); assay type: cell-based, human; settings: 5 days, control regarded as 50%
Description: Normal human epidermal keratinocytes from neonatal foreskin (NHEK cells) were prepared into 2.5×10^5 cells/mL with EpiLife medium, inoculated to 12-well plates in a volume of 1 mL/well, and cultured at 37° C. for one day under a 5% v/v CO2 condition. Thereafter, each supernatant was removed, and a medium, to which ascorbic acid 2-glucoside had been added to give a final concentration of 300 or 600 μM, was added to the resulting cells in a volume of 1 mL/well, followed by culturing the cells at 37° C. for two days under a 5% v/v CO2 condition. Another cell culture system, which had been similarly cultured in a medium free of ascorbic acid 2-glucoside, was provided as a control. The cells cultured with ascorbic acid 2-glucoside were further added with a medium supplemented with the same concentration of sodium salt of ascorbic acid 2-glucoside as that in the above medium in a volume of 1 mL/well, and cultured for another three days under the same conditions. […] Each of the resulting extract was centrifuged to collect a supernatant, and a part of which was subjected to protein quantification. […]

With `O=C1O[C@H]([C@@H](O)CO)C(O)=C1O[C@H]1O[C@H](CO)[C@@H](O)[C@H](O)[C@H]1O` [ascorbic acid 2-glucoside, 2-O-α-D-glucosyl-L-ascorbic acid] the Total glutathione (glutathione) was 106%, the “Relative expression level, Involucrin” value (Involucrin; 300 μM, calibrated with α-Tubulin) was 74% and the “Relative expression level, Involucrin” value (Involucrin; 600 μM) was 84%.
